EC50 data for one substance are collected here from patent US5112809A, “CRF analogs” (The Salk Institute for Biological Studies, priority 1990, dated 1992).

The assay relates to cultured rat pituitary cells. Description: secretion of ACTH and β-endorphin by cultured rat pituitary cells in vitro. In kind it is cell-based. As to conditions: read-out: concentration at which half-maximal responses are observed (stimulation of secretion of ACTH and β-endorphin). The protocol:
The synthetic peptides from Example I and synthetic oCRF are examined for their effects on the secretion of ACTH and β-endorphin in vitro and also in vivo. The potency of synthetic oCRF to stimulate the secretion of ACTH and β-endorphin by cultured rat pituitary cells is measured using the procedure as generally set forth in Endocrinology, 91, 562 (1972). Half-maximal responses are observed at concentrations of the two peptides which are less than the synthetic oCRF concentration of about 250 picomolar which is needed to achieve such a response. In vivo testing using the general procedure set forth in C.

As for “oCRF: ovine corticotropin releasing factor, 41-residue peptide, formula disclosed in U.S. Pat. No. 4,415,558”, the EC50 was roughly 250 pM.
